# Test results published in ChEMBL document CHEMBL1165894, “Synthesis and pharmacological characterization of a novel nitric oxide-releasing diclofenac derivative containing a benzofuroxan moiety” (Eur J Med Chem, 2010).
# Active and inactive are the calls of the source. The calls are words filed in the database; no cut-off is given here.
# How the values were obtained:
# Rattus norvegicus [1] = assay: Antiinflammatory activity in Wistar rat assessed as reduction in carrageenan-induced paw edema at 100 mg/kg, ip after 0.5 to 4 hrs; type: functional, organism-based; design: dose 100 mg/kg
# Rattus norvegicus [2] = assay: Toxicity in Wistar rat assessed as reduction in PGE2 level in gastric mucosa at 30 mg/kg, po; type: organism-based; design: dose 30 mg/kg, route oral; conditions: in vivo
# [3] = Induction of NO release in phosphate buffer containing L-cysteine at pH 7.4 assessed as nitrite level by Griess assay; type: physicochemical
# Blood [4] = assay: Antiinflammatory activity in human whole blood assessed as inhibition of LPS-induced production at 0.01 to 100 uM after 18 hrs by ELISA
# Blood [5] = assay: Antiinflammatory activity in human whole blood assessed as inhibition of LPS-induced PGE2 production at 1 to 100 uM after 18 hrs by ELISA; type: functional, tissue-based
smiles,measurement,setting,value
O=C(Cc1ccccc1Nc1c(Cl)cccc1Cl)OCc1ccc2no[n+]([O-])c2c1,Activity,Rattus norvegicus [1],Active
same,Activity,Rattus norvegicus [2],Toxic
same,Activity,[3],372 nM
same,Activity,Blood [4],Active
same,Activity,Blood [5],Active
